How the values were obtained:
[1] = tested on: alkaline phosphatase of Bacillus badius TE3592; assay: Substrate specificity of the alkaline phosphatase of Bacillus badius TE3592; type: biochemical; details: enzyme of Bacillus badius TE3592; for Relative Activity: substrate specificity, p-nitrophenyl phosphate = 100
[2] = tested on: alkaline phosphatase of Bacillus badius TE3597; assay: Substrate specificity of the alkaline phosphatase of Bacillus badius TE3597; type: biochemical; details: enzyme of Bacillus badius TE3597; for Relative Activity: substrate specificity, p-nitrophenyl phosphate = 100
[3] = tested on: alkaline phosphatase of Bacillus badius TE3593; assay: Substrate specificity of the alkaline phosphatase of Bacillus badius TE3593; type: biochemical; details: enzyme of Bacillus badius TE3593; for Relative Activity: substrate specificity, p-nitrophenyl phosphate = 100
[4] = literature; cited from earlier work
[5] = literature; temperature not given; cited from earlier work

Compound	Substrate specificity (acts on) [1]	Relative Activity [1]	Substrate specificity (acts on) [2]	Relative Activity [2]	Substrate specificity (acts on) [3]	Relative Activity [3]	Stability (in words) [4]	Specific activity [5] [U/mg]
NC(=O)c1ccc[n+]([C@@H]2O[C@H](COP(=O)([O-])OP(=O)(O)OC[C@H]3O[C@@H](n4cnc5c(N)ncnc54)[C@H](OP(=O)(O)O)[C@@H]3O)[C@@H](O)[C@H]2O)c1 [NADP]	acts on	15.4	acts on	15.4	acts on	90.5	–	–
O=P(O)(O)OC1O[C@H](CO)[C@@H](O)[C@H](O)[C@H]1O (stereo partly drawn) [Glucose-1-phosphate]	–	0	acts on	25.0	–	1.44	–	–
alkaline phosphatase derived from Escherichia coli: alkaline phosphatase derived from Escherichia coli, used for dephosphorylation in molecular biology	–	–	–	–	–	–	good stability	60

More lines, main results first:

Substrate specificity (acts on) [1]	Relative Activity [1]	Substrate specificity (acts on) [2]	Relative Activity [2]	Substrate specificity (acts on) [3]	Relative Activity [3]	Compound	Stability (in words) [4]	Specific activity [5] [U/mg]
acts on	49.7	acts on	67.5	acts on	78.1	O=P(O)(O)OC(CO)CO [β-Glycerophosphate]	–	–
acts on	44.4	acts on	67.0	acts on	73.8	NCCOP(=O)(O)O [Phosphoethanolamine]	–	–
acts on	37.9	acts on	67.0	acts on	71.4	O=P(O)(O)OCC(O)CO (racemic) [DL-α-Glycerophosphate]	–	–
acts on	14.8	acts on	34.5	acts on	44.3	O=P(O)(O)OC[C@H]1OC(O)[C@H](O)[C@@H](O)[C@@H]1O (stereo partly drawn) [Glucose-6-phosphate]	–	–
